Measured values taken from US20230158102A1 (priority 2020, published 2023).
Where two headings read alike, the source gives them in different places.

Assays:
HCoV-229E = type: cell-based
SARS-CoV-2 [1] = assay: SARS-CoV-2 replication in human stem cell-derived pneumocyte like cells; type: cell-based; conditions: 10 nm plitidepsin for 1 hour before infection (4×10^4 pfu), 48 hour incubation
Protocol: Several in vitro experiments aimed at determining the effect of plitidepsin on SARS-CoV-2 were carried out and are disclosed herein. […] In another study, human stem cell-derived pneumocyte like cells were prophylactically exposed to 10 nm plitidepsin for 1 hour and then infected with SARS-CoV-2 (4×10^4 plaque forming units). After a 48 hour incubation period, both antiviral and cytotoxic plitidepsin effects were determined.

SARS-CoV-2 [2] = assay: Mouse model of adenovirus-mediated hACE2 infected with SARS-CoV-2; type: in vivo
SARS-CoV-2 [3] = assay: Transgenic K18-hACE2 mice infected with SARS-CoV-2; type: in vivo
THP-1 cells = assay: Proinflammatory cytokine secretion in stimulated THP-1 cells; type: cell-based; conditions: THP-1 cells stimulated with pathogen-associated molecular patterns-mimicking compounds
Protocol: In vitro studies were performed using THP-1 cells, a spontaneously immortalised monocyte-like cell line derived from the peripheral blood of a childhood case of acute monocytic leukaemia, that is widely used for investigating monocyte structure and function.

CD45+ cells = assay: Ex vivo cytokine expression (IL 6, IL 10, TNFα) in LPS-B5 stimulated CD45+ cells from broncho-alveolar lavages of treated mice; conditions: CD45+ cells from plitidepsin treated mice
Text: An ex vivo study assessed the effect of plitidepsin on expression of the cytokines IL 6, IL 10, and TNFα in the lungs of mice.

SARS-CoV-2 (COVID-19) = assay: Study APLICOV-PC (NCT04382066): efficacy in patients hospitalised for COVID-19; type: in vivo, human; conditions: for Patients requiring oxygen therapy at Day 7, (%): 168 h; for Patients discharged from hospital by Day 8, (%): 192 h; for Patients discharged from hospital by Day 15, (%) / Patients requiring oxygen therapy at Day 15, (%): 360 h

CC[C@H](C)[C@H]1NC(=O)[C@@H](NC(=O)[C@@H](CC(C)C)N(C)C(=O)[C@@H]2CCCN2C(=O)C(C)=O)[C@@H](C)OC(=O)[C@H](Cc2ccc(OC)cc2)N(C)C(=O)[C@@H]2CCCN2C(=O)[C@H](CC(C)C)NC(=O)[C@@H](C)C(=O)[C@H](C(C)C)OC(=O)C[C@@H]1O [PLD, (−)-(3S,6R,7S,10R,11S,15S,17S,20S,25aS)-11-hydroxy-3-(4-methoxybenzyl)-2,6,17-trimethyl-15-(1-methylethyl)-7-[[(2R)-4-methyl-2-[methyl[[(2S)-1-(2-oxopropanoyl)pyrrolidin-2-yl]carbonyl]amino]pentanoyl]amino]-10-[(1S)-1-methylpropyl]-20-(2-methylpropyl)tetradecahydro-15H-pyrrolo[2,1-f]-[1,15,4,7,10,20]dioxatetrazacyclotricosine-1,4,8,13,16,18,21(17H)-heptone]
Concentration as low as which an antiviral effect was induced (HCoV-229E): 0.5 nM
Replication of SARS-CoV-2 (SARS-CoV-2 [1]): completely eliminated replication of SARS-CoV-2
Antiviral effects in vivo (SARS-CoV-2 [2]): potent antiviral effects in vivo
Antiviral effects in vivo (SARS-CoV-2 [3]): potent antiviral effects in vivo
Secretion of proinflammatory cytokines (THP-1 cells): significantly reduced the secretion of the proinflammatory cytokines
IL 6, IL 10 and TNFα production upon LPS-B5 stimulation compared with nonstimulated controls (CD45+ cells): failed to show a marked increase in IL 6, IL 10, and TNFα
Mean time from baseline until undetectable viral load (SARS-CoV-2 (COVID-19)): 11 days
Mortality from Day 1 to Day 31, (%) (SARS-CoV-2 (COVID-19)): (4.5) %
Patients requiring ICU admission from Day 1 to Day 7, (%) (SARS-CoV-2 (COVID-19)): (11.4) %
Patients requiring ICU admission from Day 1 to Day 15, (%) (SARS-CoV-2 (COVID-19)): (13.6) %
Patients requiring ICU admission from Day 1 to Day 31, (%) (SARS-CoV-2 (COVID-19)): (13.6) %
Patients requiring invasive mechanical ventilation and/or ICU admission from Day 1 to Day 7, (%) (SARS-CoV-2 (COVID-19)): (11.4) %
Patients requiring invasive mechanical ventilation and/or ICU admission from Day 1 to Day 15, (%) (SARS-CoV-2 (COVID-19)): (13.6) %
Patients requiring invasive mechanical ventilation and/or ICU admission from Day 1 to Day 31, (%) (SARS-CoV-2 (COVID-19)): (13.6) %
Patients requiring noninvasive mechanical ventilation from Day 1 to Day 7, (%) (SARS-CoV-2 (COVID-19)): (9.1) %
Patients requiring noninvasive mechanical ventilation from Day 1 to Day 15, (%) (SARS-CoV-2 (COVID-19)): (11.4) %
Patients requiring noninvasive mechanical ventilation from Day 1 to Day 31, (%) (SARS-CoV-2 (COVID-19)): (13.6) %
Mean time from baseline until undetectable viral load (SARS-CoV-2 (COVID-19); 1.5 mg): 7 days
Mortality from Day 1 to Day 31, (%) (SARS-CoV-2 (COVID-19); 1.5 mg): (7.1) %
Patients requiring ICU admission from Day 1 to Day 7, (%) (SARS-CoV-2 (COVID-19); 1.5 mg): (14.3) %
Patients requiring ICU admission from Day 1 to Day 15, (%) (SARS-CoV-2 (COVID-19); 1.5 mg): (14.3) %
Patients requiring ICU admission from Day 1 to Day 31, (%) (SARS-CoV-2 (COVID-19); 1.5 mg): (14.3) %
Patients requiring invasive mechanical ventilation and/or ICU admission from Day 1 to Day 7, (%) (SARS-CoV-2 (COVID-19); 1.5 mg): (14.3) %
Patients requiring invasive mechanical ventilation and/or ICU admission from Day 1 to Day 15, (%) (SARS-CoV-2 (COVID-19); 1.5 mg): (14.3) %
Patients requiring invasive mechanical ventilation and/or ICU admission from Day 1 to Day 31, (%) (SARS-CoV-2 (COVID-19); 1.5 mg): (14.3) %
Patients requiring noninvasive mechanical ventilation from Day 1 to Day 7, (%) (SARS-CoV-2 (COVID-19); 1.5 mg): (21.4) %
Patients requiring noninvasive mechanical ventilation from Day 1 to Day 15, (%) (SARS-CoV-2 (COVID-19); 1.5 mg): (21.4) %
Patients requiring noninvasive mechanical ventilation from Day 1 to Day 31, (%) (SARS-CoV-2 (COVID-19); 1.5 mg): (21.4) %
Patients requiring oxygen therapy at Day 7, (%) (SARS-CoV-2 (COVID-19); 1.5 mg): (71.4) %
Patients discharged from hospital by Day 8, (%) (SARS-CoV-2 (COVID-19); 1.5 mg): (42.9) %
Patients discharged from hospital by Day 15, (%) (SARS-CoV-2 (COVID-19); 1.5 mg): (78.6) %
Patients requiring oxygen therapy at Day 15, (%) (SARS-CoV-2 (COVID-19); 1.5 mg): (28.6) %
Patients discharged from hospital by Day 31, (%) (SARS-CoV-2 (COVID-19); 1.5 mg, 744 h): (92.9) %
Mean time from baseline until undetectable viral load (SARS-CoV-2 (COVID-19); 2 mg): 13 days
Patients requiring ICU admission from Day 1 to Day 7, (%) (SARS-CoV-2 (COVID-19); 2 mg): (6.7) %
Patients requiring ICU admission from Day 1 to Day 15, (%) (SARS-CoV-2 (COVID-19); 2 mg): (6.7) %
Patients requiring ICU admission from Day 1 to Day 31, (%) (SARS-CoV-2 (COVID-19); 2 mg): (6.7) %
Patients requiring invasive mechanical ventilation and/or ICU admission from Day 1 to Day 7, (%) (SARS-CoV-2 (COVID-19); 2 mg): (6.7) %
Patients requiring invasive mechanical ventilation and/or ICU admission from Day 1 to Day 15, (%) (SARS-CoV-2 (COVID-19); 2 mg): (6.7) %
Patients requiring invasive mechanical ventilation and/or ICU admission from Day 1 to Day 31, (%) (SARS-CoV-2 (COVID-19); 2 mg): (6.7) %
Patients requiring noninvasive mechanical ventilation from Day 1 to Day 31, (%) (SARS-CoV-2 (COVID-19); 2 mg): (6.7) %
Patients requiring oxygen therapy at Day 7, (%) (SARS-CoV-2 (COVID-19); 2 mg): (66.7) %
Patients discharged from hospital by Day 8, (%) (SARS-CoV-2 (COVID-19); 2 mg): (60.0) %
Patients discharged from hospital by Day 15, (%) (SARS-CoV-2 (COVID-19); 2 mg): (93.3) %
Patients requiring oxygen therapy at Day 15, (%) (SARS-CoV-2 (COVID-19); 2 mg): (6.7) %
Patients discharged from hospital by Day 31, (%) (SARS-CoV-2 (COVID-19); 2 mg, 744 h): (93.3) %
Patients requiring oxygen therapy at Day 31, (%) (SARS-CoV-2 (COVID-19); 2 mg, 744 h): (13.3) %
Mean time from baseline until undetectable viral load (SARS-CoV-2 (COVID-19); 2.5 mg): 12 days
Mortality from Day 1 to Day 31, (%) (SARS-CoV-2 (COVID-19); 2.5 mg): (6.7) %
Patients requiring ICU admission from Day 1 to Day 7, (%) (SARS-CoV-2 (COVID-19); 2.5 mg): (13.3) %
Patients requiring ICU admission from Day 1 to Day 15, (%) (SARS-CoV-2 (COVID-19); 2.5 mg): (20.0) %
